Measurements as given in patent US6841535B2, “Peptide-mediated transfection agents and methods of use” (Active Motif, priority 2000, dated 2005).
*1 amine or outer side, *2 acyl side, *3 side chain or, on linkers, in order; H or OH if unused. Where no end group is shown, it is not given here. Cysteamide = C(CS[*:3])N[*:1]

Experiments:
[1] = test system: mammalian fibroblasts, NIH 3T3 fibroblasts or murine L1210 lymphocytes; experiment: Cellular localization of lucifer yellow-linked peptides; type: cell-based; conditions: 3 min incubation at 10 μM
[2] = test system: HS-68 and NIH 3T3 cell lines; experiment: Peptide delivery by vector peptides (fluorescently labeled peptide B / peptide A); type: cell-based; conditions: transfection of fluorescently labeled peptide; one micromolar vector peptide; 1 h
Experimental: (§1) We evaluated the ability of peptides designed according to principles described herein, as well as variants thereof, to deliver peptides and proteins into HS-68 and NIH 3T3 cell lines. Peptide delivery was performed with a 32 mer peptide (peptide B), and in some cases a […] peptide (peptide A). The peptides were fluorescently labeled. Peptides (5.0×10^−8M or 5.0×10^−7M) were incubated with one micromolar vector peptide in cell culture medium in the absence of serum for 30 min. Cultured cells (0.5 to 1.0×10^6) were then overlaid with the preformed peptide/vector peptide complexes in 500 μL DMEM for one hour in the presence or absence of FCS. Complexes were formed prior to addition of FCS to avoid interactions between ep-vector and serum proteins. Following this transfection step, fresh DMEM supplemented with serum was added for another hour. Then cells were extensively washed, fixed and analyzed by fluorescence microscopy.
(§2) The results of the experiments testing the transfection properties of the peptides are presented as a table in which the sequences are aligned for optimal comparison: […]

[3] = test system: HS-68 and NIH 3T3 cell lines; experiment: Drug delivery by vector peptides (ANS and Bis-ANS); type: cell-based; conditions: transfection of ANS and Bis-ANS; incubated with peptide at a molar ratio of 1:20; 1 h
Experimental: For investigation of drug delivery, we used the naphthalene derivatives ANS and Bis-ANS, which have intrinsic fluorescence. The drugs was incubated with peptide at a molar ratio of 1:20, followed by overlay of the complex onto cultured cells. This was followed by incubation for 1 h. Then cells were extensively washed and observed by microscopy.
as §2

[4] = test system: HS-68 and NIH 3T3 cell lines; experiment: Protein delivery by vector peptides (GFP); type: cell-based; conditions: transfection of GFP; incubated with peptide at a molar ratio of 1:20; 1 h
Experimental: as §1
To investigate protein delivery we tested the delivery into cells of the fluorescent protein GFP. The protein was incubated with peptide at a molar ratio of 1:20, followed by overlay of the complex onto cultured cells. This was followed by incubation for 1 h. Then cells were extensively washed and fixed with formalin before observation.
as §2

[5] = test system: Acheloplasma laidlawii and Spiroplasma melliferum; conditions: concentrations much lower than minimal inhibitory concentrations; cited from earlier work
[6] = phosphatidylcholine or phosphatidylserine monolayers; cited from earlier work
[7] = test system: human fibroblasts (HS-68); experiment: Cellular localization of rhodamine-labeled ODN-peptide conjugate; type: cell-based
Experimental: The first ODN has the sequence d(GGTCTTACTCTCCGTCTCT) (SEQ ID NO:30). It was modified in 5′ by a hexamethylene-bridged pyridyldisulfide and in 3′ by a 2-propanol-3-amino group and labeled with rhodamine. Conjugation was performed by stirring a solution of the oligonucleotide with a three fold excess of peptide for 3 h. […] The target compartment of the conjugate remains to be identified.

Substance	Pep [2]	Drug [3]	Pro [4]	further results
GALFLGWLGAAGSTMGARKKKRKV (Ac-GALFLGWLGAAGSTMGARKKKRKV; not fully specified (C-terminus); printed as GALFLGWLGAAGSTMGARKKKRKV) [[4]]	–	–	–	final localization of lucifer yellow-linked peptide [1]: remains membrane associated
GALFLGWLGAAGSTMGAWSQPKKKRKV (Ac-GALFLGWLGAAGSTMGAWSQPKKKRKV; not fully specified (C-terminus); printed as GALFLGWLGAAGSTMGAWSQPKKKRKV) [[3]]	–	–	–	final localization of lucifer yellow-linked peptide [1]: both localizations, membrane associate and nuclear
KETWWETWWETWSQKKKRKV [Pep-2.9-cya]	5%	–	–	–
KETWWETWWTEWSQPKKRKV [Pep-2.1-cya]	80%	20%	70%	–
KTWWETWWETWSQPKKRKV [Pep-4.2-cya]	Aggr.	Aggr.	Aggr.	–
Lys Glu Thr Trp Trp Glu Thr Trp Thr Trp Ser Gln Pro Lys Lys Lys Arg Lys Val (Ac-KETWWETWTWSQPKKKRKV-Cysteamide) [Pep-2.4-cya]	60%	5%	20-30%	–
Lys Glu Thr Trp Trp Glu Thr Trp Trp Glu Thr Trp Ser Gln Pro Lys Lys Lys Arg Lys Val (Ac-KETWWETWWETWSQPKKKRKV-Cysteamide) [Pep-2.3-cya]	60-70%	30%	50-70%	–
Lys Glu Thr Trp Trp Glu Thr Trp Trp Thr Glu Ala Ser Gln Pro Lys Lys Arg Lys Val (Ac-KETWWETWWTEASQPKKRKV-Cysteamide) [Pep-2.2-cya]	–	5%	30%	–
Lys Glu Thr Trp Trp Glu Thr Trp Trp Thr Glu Trp Ser Gln Pro Lys Lys Lys Arg Lys Val (Ac-KETWWETWWTEWSQPKKKRKV-Cysteamide) [Pep-2-cya]	–	20%	–	–
Lys Lys Lys Arg Lys Val Lys Glu Thr Trp Trp Glu Thr Trp Trp Glu Thr Val (Ac-KKKRKVKETWWETWWETV-Cysteamide; SMILES CC(=O)N[C@@H](CCCCN)C(=O)N[C@@H](CCCCN)C(=O)N[C@@H](CCCCN)C(=O)N[C@@H](CCCNC(=N)N)C(=O)N[C@@H](CCCCN)C(=O)N[C@H](C(=O)N[C@@H](CCCCN)C(=O)N[C@@H](CCC(=O)O)C(=O)N[C@H](C(=O)N[C@@H](Cc1c[nH]c2ccccc12)C(=O)N[C@@H](Cc1c[nH]c2ccccc12)C(=O)N[C@@H](CCC(=O)O)C(=O)N[C@H](C(=O)N[C@@H](Cc1c[nH]c2ccccc12)C(=O)N[C@@H](Cc1c[nH]c2ccccc12)C(=O)N[C@@H](CCC(=O)O)C(=O)N[C@H](C(=O)N[C@H](C(=O)NCCS)C(C)C)[C@@H](C)O)[C@@H](C)O)[C@@H](C)O)C(C)C) [Pep-2.6-cya]	30%	–	20%	–
Lys Lys Lys Arg Lys Val Lys Pro Glu Thr Trp Trp Glu Thr Trp Trp Glu Thr Val (Ac-KKKRKVKPETWWETWWETV-Cysteamide) [Pep-2.7-cya]	20-30%	–	10-20%	–
Lys Thr Trp Trp Glu Thr Trp Trp Glu Thr Ala Ser Gln Pro Lys Lys Arg Lys Val (Ac-KTWWETWWETASQPKKRKV-Cysteamide; SMILES CC(=O)N[C@@H](CCCCN)C(=O)N[C@H](C(=O)N[C@@H](Cc1c[nH]c2ccccc12)C(=O)N[C@@H](Cc1c[nH]c2ccccc12)C(=O)N[C@@H](CCC(=O)O)C(=O)N[C@H](C(=O)N[C@@H](Cc1c[nH]c2ccccc12)C(=O)N[C@@H](Cc1c[nH]c2ccccc12)C(=O)N[C@@H](CCC(=O)O)C(=O)N[C@H](C(=O)N[C@@H](C)C(=O)N[C@@H](CO)C(=O)N[C@@H](CCC(N)=O)C(=O)N1CCC[C@H]1C(=O)N[C@@H](CCCCN)C(=O)N[C@@H](CCCCN)C(=O)N[C@@H](CCCNC(=N)N)C(=O)N[C@@H](CCCCN)C(=O)N[C@H](C(=O)NCCS)C(C)C)[C@@H](C)O)[C@@H](C)O)[C@@H](C)O) [Pep-4.1-cya]	Aggr.	Aggr.	Aggr.	–
Lys Trp Trp Glu Thr Trp Trp Glu Thr Trp Ser Gln Pro Lys Lys Lys Arg Lys Val (Ac-KWWETWWETWSQPKKKRKV-Cysteamide) [Pep-2.5-cya]	50-60%	5%	5%	–
MGLGLHLLVLAAALQGAWSQPKKKRKV (Ac-MGLGLHLLVLAAALQGAWSQPKKKRKV; not fully specified (C-terminus); printed as MGLGLHLLVLAAALQGAWSQPKKKRKV) [[1]]	–	–	–	final localization of lucifer yellow-linked peptide [1]: localize in the nuclei of the cells; effect on membrane potential and transmembrane pH gradient [5]: decrease; surface pressure increase [6]: ~15 mN/m
Tyr Gly Phe Lys Lys Arg Arg Gln Pro Thr Trp Trp Glu Thr Trp Trp Thr Glu (Ac-YGFKKRRQPTWWETWWTE-Cysteamide) [Pep-1.1-cya]	80%	5%	60%	–
Tyr Gly Phe Lys Lys Arg Arg Gln Thr Trp Trp Glu Thr Trp Trp Thr Glu (Ac-YGFKKRRQTWWETWWTE-Cysteamide) [Pep-1.2-cya]	80%	5%	80-90%	–
Tyr Gly Phe Lys Lys Phe Arg Lys Pro Trp Thr Trp Trp Glu Thr Trp Trp Thr Glu (Ac-YGFKKFRKPWTWWETWWTE-Cysteamide; SMILES CC(=O)N[C@@H](Cc1ccc(O)cc1)C(=O)NCC(=O)N[C@@H](Cc1ccccc1)C(=O)N[C@@H](CCCCN)C(=O)N[C@@H](CCCCN)C(=O)N[C@@H](Cc1ccccc1)C(=O)N[C@@H](CCCNC(=N)N)C(=O)N[C@@H](CCCCN)C(=O)N1CCC[C@H]1C(=O)N[C@@H](Cc1c[nH]c2ccccc12)C(=O)N[C@H](C(=O)N[C@@H](Cc1c[nH]c2ccccc12)C(=O)N[C@@H](Cc1c[nH]c2ccccc12)C(=O)N[C@@H](CCC(=O)O)C(=O)N[C@H](C(=O)N[C@@H](Cc1c[nH]c2ccccc12)C(=O)N[C@@H](Cc1c[nH]c2ccccc12)C(=O)N[C@H](C(=O)N[C@@H](CCC(=O)O)C(=O)NCCS)[C@@H](C)O)[C@@H](C)O)[C@@H](C)O) [Pep-3-cya]	50%	50-70%	5%	–
d(GGTCTTACTCTCCGTCTCT) (DNA, backbone not given here; 5' hexamethylene pyridyldisulfide, 3' 2-propanol-3-amino, rhodamine label, peptide conjugated) [first ODN]	–	–	–	cellular localization of the conjugate ([7]; ODN conjugated to peptide, 5 min incubation): clearly cytoplasmic but not nuclear; cellular internalization of the free oligonucleotide ([7]; free, not conjugated): no spontaneous cellular internalization could be detected
